The text below walks through data of ChEMBL document CHEMBL4680314, “Discovery of potent glycogen synthase kinase 3/cholinesterase inhibitors with neuroprotection as potential therapeutic agent for Alzheimer's disease” (Bioorg Med Chem, 2021).

The nature of data set [1]: AUC (0 to 24 hrs) in Sprague-Dawley rat at 10 mg/kg, iv measured upto 24 hrs by LC-MS/MS analysis. It counts as ADME, organism-based. Set-up: route intravenous, dose 10 mg/kg, time <=24. As to conditions: in vivo.
Data set [2] is described as follows: Volume of distribution in Sprague-Dawley rat at 10 mg/kg, po measured upto 24 hrs by LC-MS/MS analysis. It is filed as ADME, organism-based. To be noted: in vivo.
The nature of data set [3]: Half life in Sprague-Dawley rat at 10 mg/kg, iv measured upto 24 hrs by LC-MS/MS analysis. It counts as ADME, organism-based. As to conditions: in vivo.
Data set [4] in a line: MRT (0 to t) in Sprague-Dawley rat at 10 mg/kg, iv measured upto 24 hrs by LC-MS/MS analysis. As to conditions: in vivo. It is filed as ADME, organism-based.
Data set [5] addresses Acetylcholinesterase (Homo sapiens, UniProt P22303). The data set is described as follows: Inhibition of human recombinant AChE expressed in HEK293 cells using acetylthiocholine iodide as substrate incubated for 10 mins by Ellman's method. It counts as cell-based. Background: Ellman's reagent forms a yellow product with free thiols.
A short description of data set [6]: Tmax in Sprague-Dawley rat at 10 mg/kg, iv measured upto 24 hrs by LC-MS/MS analysis. It is filed as ADME, organism-based. As to conditions: in vivo.
Data set [7] is described as follows: AUC (0 to 24 hrs) in Sprague-Dawley rat at 10 mg/kg, po measured upto 24 hrs by LC-MS/MS analysis. As to conditions: in vivo. More on the design: route oral, dose 10 mg/kg, time <=24. It counts as ADME, organism-based.
In data set [8] the target is Glycogen synthase kinase-3 beta (Homo sapiens, UniProt P49841). The data set is described as follows: biochemical.
Description: Inhibition of recombinant human N-terminal His6-tagged GSK3beta H350L mutant expressed in baculovirus infected Sf21 cells using prephosphorylated polypeptide as substrate incubated for 1 min followed by substrate addition and measured after 30 mins by Kinase-Glo luminescence assay
A short description of data set [9]: Clearance in Sprague-Dawley rat at 10 mg/kg, po measured upto 24 hrs by LC-MS/MS analysis. It is filed as ADME, organism-based. To be noted: in vivo.
A short description of data set [10]: Cmax in Sprague-Dawley rat at 10 mg/kg, iv measured upto 24 hrs by LC-MS/MS analysis. It counts as ADME, organism-based. Set-up: route intravenous, dose 10 mg/kg, time <=24. To be noted: in vivo.
Data set [11] is described as follows: in vitro. To be noted: PAMPA.
Description: Effective permeability of compound in PBS/EtOH buffer (7:3) at 25 ug/ml incubated for 18 hrs by PAMPA-BBB assay
Data set [12] is described as follows: MRT (0 to t) in Sprague-Dawley rat at 10 mg/kg, po measured upto 24 hrs by LC-MS/MS analysis. It is filed as ADME, organism-based. As to conditions: in vivo.
The nature of data set [13]: Clearance in Sprague-Dawley rat at 10 mg/kg, iv measured upto 24 hrs by LC-MS/MS analysis. It counts as ADME, organism-based. As to conditions: in vivo.
Data set [14] can be described thus: Half life in Sprague-Dawley rat at 10 mg/kg, po measured upto 24 hrs by LC-MS/MS analysis. It is filed as ADME, organism-based. As to conditions: in vivo.
The nature of data set [15]: AUC (0 to infinity) in Sprague-Dawley rat at 10 mg/kg, po by LC-MS/MS analysis. It is filed as ADME, organism-based. Set-up: route oral, time infinity, dose 10 mg/kg. As to conditions: in vivo.
Data set [16] in a line: AUC (0 to infinity) in Sprague-Dawley rat at 10 mg/kg, iv by LC-MS/MS analysis. It counts as ADME, organism-based. Set-up: time infinity, route intravenous, dose 10 mg/kg. As to conditions: in vivo.
The nature of data set [17]: Volume of distribution in Sprague-Dawley rat at 10 mg/kg, iv measured upto 24 hrs by LC-MS/MS analysis. It counts as ADME, organism-based. To be noted: in vivo.
Data set [18] in a line: Oral bioavailability in Sprague-Dawley rat at 10 mg/kg measured upto 24 hrs by LC-MS/MS analysis. It counts as ADME, organism-based. To be noted: in vivo.
Data set [19] in a line: Tmax in Sprague-Dawley rat at 10 mg/kg, po measured upto 24 hrs by LC-MS/MS analysis. It counts as ADME, organism-based. As to conditions: in vivo.
Data set [20] addresses Cholinesterase (Homo sapiens, UniProt P06276). The data set is described as follows: Inhibition of human BChE using butyrylthiocholineiodide as substrate incubated for 10 mins by Ellman's method.
Data set [21] in a line: Cmax in Sprague-Dawley rat at 10 mg/kg, po measured upto 24 hrs by LC-MS/MS analysis. Set-up: route oral, dose 10 mg/kg, time <=24. It counts as ADME, organism-based. As to conditions: in vivo.

Sequence of Cholinesterase (P06276 whole entry): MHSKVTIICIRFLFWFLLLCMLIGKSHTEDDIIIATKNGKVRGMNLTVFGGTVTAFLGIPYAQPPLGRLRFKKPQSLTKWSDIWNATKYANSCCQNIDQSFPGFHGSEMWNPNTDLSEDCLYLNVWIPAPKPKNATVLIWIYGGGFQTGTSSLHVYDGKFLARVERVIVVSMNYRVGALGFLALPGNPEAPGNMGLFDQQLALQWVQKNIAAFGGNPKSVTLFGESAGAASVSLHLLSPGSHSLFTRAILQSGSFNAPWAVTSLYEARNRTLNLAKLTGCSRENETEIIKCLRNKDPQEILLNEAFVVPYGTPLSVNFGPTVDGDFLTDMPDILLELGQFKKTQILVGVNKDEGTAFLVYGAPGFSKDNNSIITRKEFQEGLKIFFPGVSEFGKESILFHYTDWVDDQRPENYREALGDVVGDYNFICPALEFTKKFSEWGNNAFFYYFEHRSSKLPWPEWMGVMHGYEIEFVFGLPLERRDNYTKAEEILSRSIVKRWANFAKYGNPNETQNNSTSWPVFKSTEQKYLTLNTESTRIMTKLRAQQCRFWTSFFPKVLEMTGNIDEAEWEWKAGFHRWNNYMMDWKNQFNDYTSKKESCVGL
Sequence of Glycogen synthase kinase-3 beta (P49841 whole entry): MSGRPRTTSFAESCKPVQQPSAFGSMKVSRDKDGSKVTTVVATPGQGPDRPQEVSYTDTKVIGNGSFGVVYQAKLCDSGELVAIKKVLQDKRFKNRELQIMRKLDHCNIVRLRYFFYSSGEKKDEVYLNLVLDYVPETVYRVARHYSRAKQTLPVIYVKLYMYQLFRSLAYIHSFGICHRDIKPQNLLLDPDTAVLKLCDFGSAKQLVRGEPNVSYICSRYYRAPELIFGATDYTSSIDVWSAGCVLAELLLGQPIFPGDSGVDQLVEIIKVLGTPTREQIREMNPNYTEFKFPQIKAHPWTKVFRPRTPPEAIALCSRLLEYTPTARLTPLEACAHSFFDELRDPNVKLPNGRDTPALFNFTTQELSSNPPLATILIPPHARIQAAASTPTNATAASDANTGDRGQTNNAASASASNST
Sequence of Acetylcholinesterase (P22303 whole entry): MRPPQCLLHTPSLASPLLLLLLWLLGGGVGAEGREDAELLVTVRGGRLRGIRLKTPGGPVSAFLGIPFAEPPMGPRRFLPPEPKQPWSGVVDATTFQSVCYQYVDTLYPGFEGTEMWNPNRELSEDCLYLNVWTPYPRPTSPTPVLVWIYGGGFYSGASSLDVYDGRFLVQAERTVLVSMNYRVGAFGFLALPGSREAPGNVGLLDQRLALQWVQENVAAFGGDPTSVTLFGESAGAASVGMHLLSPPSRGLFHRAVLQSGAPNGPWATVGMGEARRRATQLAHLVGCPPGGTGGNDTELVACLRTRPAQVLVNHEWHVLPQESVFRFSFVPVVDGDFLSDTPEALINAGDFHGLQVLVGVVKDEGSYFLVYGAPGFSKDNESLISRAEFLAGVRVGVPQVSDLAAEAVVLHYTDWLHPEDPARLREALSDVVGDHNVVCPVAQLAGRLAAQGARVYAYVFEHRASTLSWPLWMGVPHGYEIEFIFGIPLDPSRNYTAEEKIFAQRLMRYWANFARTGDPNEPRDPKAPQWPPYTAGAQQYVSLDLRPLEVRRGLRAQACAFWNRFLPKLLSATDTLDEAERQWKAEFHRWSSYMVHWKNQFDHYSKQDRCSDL

Usually AUC(0-t) stands for exposure summed from dosing to a finite time, without extrapolation to infinity. A high value points to more exposure. Usually half-life stands for the time in which the quantity being followed falls by half. Low values mean fast loss, high ones slow loss. The term MRT last denotes a mean duration of stay, worked out from the concentration-time curve. As a reminder, the IC50 is the concentration needed to halve the response being measured. As a reminder, the Tmax is the time from dosing to the highest level. One may read the CL/F as clearance divided by bioavailability, as obtained after extravascular dosing. In general, Cmax refers to the maximum level reached in the sampled fluid or tissue. The Papp is a coefficient for how fast a substance crosses the barrier. A higher Papp goes with fast passage. The term clearance denotes a measure of how efficiently the substance is removed, as volume per time. A lower clearance goes with a low capacity for elimination. A word on the AUC(0-inf): it is total exposure, with the tail of the curve extrapolated. Read a high AUC(0-inf) as high exposure. For orientation: bioavailability means dose-corrected exposure relative to a reference, in per cent. High values mean good availability, low ones poor availability. Consider `NC(=O)c1sc(-c2ccnc(NC(=O)C3CC3)c2)nc1OCC1CCN(Cc2ccccc2)CC1`, for which the area under the curve AUC(0-t) in [1] came to 1540 ng·h/mL; in data set [7], 622 ng·h/mL. Besides, the values for the Vd in data set [2] and in data set [17] were 93.6 L/kg and 55.2 L/kg, respectively. Further, the half-life was 6.7 h in data set [3] and 4.5 h in data set [14]. In addition, the MRT last at 24 h in data set [4] was found to be 9.1 h; in [12], 8.1 h. Moreover, the 50% inhibitory concentration (IC50) is 1.5 µM in data set [5], 0.094 µM in [8] and 12.7 µM in data set [20]. Also, the Tmax came out at 6 min in data set [6] and 4.5 h in [19]. In data set [9], this compound had an apparent clearance CL/F of 267 mL/min/kg. The Cmax is 507 ng/mL in data set [10] and 67.3 ng/mL in [21]. The compound further returned a Papp at 18 h, 25 ug/ml in data set [11] of 6.4 ×10⁻⁶ cm/s. The same compound returned a clearance in [13] of 104 mL/min/kg. For the same compound, the figures for the area under the curve AUC(0-inf) in data set [15] and in [16] were 688 ng·h/mL and 1820 ng·h/mL, respectively. The bioavailability in [18] is 40.7%.
